# Source: ChEMBL document CHEMBL1147536, “Synthesis and biochemical properties of E-ring modified luotonin A derivatives” (2004)
# Tests used:
# Type in all cases: functional
# Saccharomyces cerevisiae [1] = test: Percent inhibitory activity of 1 uM of compound against growth of Saccharomyces cerevisiae transfected with human topoisomerase-1 in medium containing galactose
# Saccharomyces cerevisiae [2] = test: Percent inhibitory activity of 10 uM of compound against growth of Saccharomyces cerevisiae transfected with human topoisomerase-1 in medium containing raffinose
# Saccharomyces cerevisiae [3] = test: Percent inhibitory activity of 10 uM of compound against growth of Saccharomyces cerevisiae transfected with human topoisomerase-1 in medium containing galactose
# Saccharomyces cerevisiae [4] = test: Percent inhibitory activity of 1 uM of compound against growth of Saccharomyces cerevisiae transfected with human topoisomerase-1 in medium containing raffinose
# Saccharomyces cerevisiae [5] = test: Percent inhibitory activity of 100 uM of compound against growth of Saccharomyces cerevisiae transfected with human topoisomerase-1 in medium containing raffinose
# Saccharomyces cerevisiae [6] = test: Percent inhibitory activity of 100 uM of compound against growth of Saccharomyces cerevisiae transfected with human topoisomerase-1 in medium containing galactose
# Saccharomyces cerevisiae [7] = test: Percent inhibitory activity of 50 uM of compound against growth of Saccharomyces cerevisiae transfected with human topoisomerase-1 in medium containing galactose
# Saccharomyces cerevisiae [8] = test: Percent inhibitory activity of 50 uM of compound against growth of Saccharomyces cerevisiae transfected with human topoisomerase-1 in medium containing raffinose
# Saccharomyces cerevisiae [9] = test: Percent inhibitory activity of 5 uM of compound against growth of Saccharomyces cerevisiae transfected with human topoisomerase-1 in medium containing galactose
# Saccharomyces cerevisiae [10] = test: Percent inhibitory activity of 25 uM of compound against growth of Saccharomyces cerevisiae transfected with human topoisomerase-1 in medium containing galactose
# Saccharomyces cerevisiae [11] = test: Percent inhibitory activity of 25 uM of compound against growth of Saccharomyces cerevisiae transfected with human topoisomerase-1 in medium containing raffinose
# Saccharomyces cerevisiae [12] = test: Percent inhibitory activity of 5 uM of compound against growth of Saccharomyces cerevisiae transfected with human topoisomerase-1 in medium containing raffinose
# Saccharomyces cerevisiae [13] = test: Percent inhibitory activity of 0.5 uM of compound against growth of Saccharomyces cerevisiae transfected with human topoisomerase-1 in medium containing galactose
# Saccharomyces cerevisiae [14] = test: Percent inhibitory activity of 0.5 uM of compound against growth of Saccharomyces cerevisiae transfected with human topoisomerase-1 in medium containing raffinose
# Saccharomyces cerevisiae [15] = test: Percent inhibitory activity of 1.5 uM of compound against growth of Saccharomyces cerevisiae transfected with human topoisomerase-1 in medium containing galactose
# Saccharomyces cerevisiae [16] = test: Percent inhibitory activity of 0.75 uM of compound against growth of Saccharomyces cerevisiae transfected with human topoisomerase-1 in medium containing raffinose
# Saccharomyces cerevisiae [17] = test: Percent inhibitory activity of 15 uM of compound against growth of Saccharomyces cerevisiae transfected with human topoisomerase-1 in medium containing raffinose
# Saccharomyces cerevisiae [18] = test: Percent inhibitory activity of 15 uM of compound against growth of Saccharomyces cerevisiae transfected with human topoisomerase-1 in medium containing galactose
# Saccharomyces cerevisiae [19] = test: Percent inhibitory activity of 1.5 uM of compound against growth of Saccharomyces cerevisiae transfected with human topoisomerase-1 in medium containing raffinose
# Saccharomyces cerevisiae [20] = test: Percent inhibitory activity of 0.75 uM of compound against growth of Saccharomyces cerevisiae transfected with human topoisomerase-1 in medium containing galactose
SMILES,Inhibition (Saccharomyces cerevisiae [1]) [%],Inhibition (Saccharomyces cerevisiae [2]) [%],Inhibition (Saccharomyces cerevisiae [3]) [%],Inhibition (Saccharomyces cerevisiae [4]) [%],Inhibition (Saccharomyces cerevisiae [7]) [%],Inhibition (Saccharomyces cerevisiae [8]) [%],further results
O=c1c2cc(F)c(F)cc2nc2n1Cc1cc3ccccc3nc1-2,0,53,0,26,–,–,–
O=c1c2c(nc3n1Cc1cc4ccccc4nc1-3)CCCC2,–,–,–,–,46,3,Inhibition (Saccharomyces cerevisiae [5]): 18%; Inhibition (Saccharomyces cerevisiae [6]): 51%
O=c1c2cccc(O)c2nc2n1Cc1cc3ccccc3nc1-2,–,–,–,–,9,0,Inhibition (Saccharomyces cerevisiae [5]): 7%; Inhibition (Saccharomyces cerevisiae [6]): 13%
Cc1ccc2nc3n(c(=O)c2c1)Cc1cc2ccccc2nc1-3,14,39,49,8,–,–,–
COc1cccc2c(=O)n3c(nc12)-c1nc2ccccc2cc1C3 [16-METHOXYLUOTONIN A],–,–,–,–,–,–,Inhibition (Saccharomyces cerevisiae [9]): 0%; Inhibition (Saccharomyces cerevisiae [10]): 2%; Inhibition (Saccharomyces cerevisiae [11]): 47%; Inhibition (Saccharomyces cerevisiae [12]): 35%
O=c1c2ccc(F)cc2nc2n1Cc1cc3ccccc3nc1-2,–,–,–,–,73,14,Inhibition (Saccharomyces cerevisiae [10]): 40%; Inhibition (Saccharomyces cerevisiae [11]): 0%
O=c1c2ccccc2nc2n1Cc1cc3ccccc3nc1-2 [LUOTONIN A],36,35,56,0,–,–,Inhibition (Saccharomyces cerevisiae [13]): 23%; Inhibition (Saccharomyces cerevisiae [14]): 0%
CC[C@@]1(O)C(=O)OCc2c1cc1n(c2=O)Cc2cc3ccccc3nc2-1 [CAMPTOTHECIN],–,–,–,–,–,–,Inhibition (Saccharomyces cerevisiae [15]): 68%; Inhibition (Saccharomyces cerevisiae [16]): 10%; Inhibition (Saccharomyces cerevisiae [17]): 18%; Inhibition (Saccharomyces cerevisiae [18]): 78%; Inhibition (Saccharomyces cerevisiae [19]): 19%; Inhibition (Saccharomyces cerevisiae [20]): 40%
